# Source: ChEMBL document CHEMBL5126633, “Developing HDAC4-Selective Protein Degraders To Investigate the Role of HDAC4 in Huntington's Disease Pathology” (J Med Chem, 2022)
# Activity calls are given as the source filed them. No cut-off for these calls is given here.
# Experiments:
# [1] = Kinetic aqueous solubility of the compound in PBS buffer at pH 7.4 incubated for 2 hrs under shaking condition by LC-UV analysis; format: physicochemical; conditions: read-out: Kinetic_solubility
# Histone deacetylase 4 = Histone deacetylase 4 (Homo sapiens, UniProt P56524); experiment: Inhibition of recombinant HDAC4 (unknown origin) using Boc-Lys(TFA)-AMC as substrate by fluorescence based plate reader assay
# Chain of Histone deacetylase 4 (P56524 whole entry): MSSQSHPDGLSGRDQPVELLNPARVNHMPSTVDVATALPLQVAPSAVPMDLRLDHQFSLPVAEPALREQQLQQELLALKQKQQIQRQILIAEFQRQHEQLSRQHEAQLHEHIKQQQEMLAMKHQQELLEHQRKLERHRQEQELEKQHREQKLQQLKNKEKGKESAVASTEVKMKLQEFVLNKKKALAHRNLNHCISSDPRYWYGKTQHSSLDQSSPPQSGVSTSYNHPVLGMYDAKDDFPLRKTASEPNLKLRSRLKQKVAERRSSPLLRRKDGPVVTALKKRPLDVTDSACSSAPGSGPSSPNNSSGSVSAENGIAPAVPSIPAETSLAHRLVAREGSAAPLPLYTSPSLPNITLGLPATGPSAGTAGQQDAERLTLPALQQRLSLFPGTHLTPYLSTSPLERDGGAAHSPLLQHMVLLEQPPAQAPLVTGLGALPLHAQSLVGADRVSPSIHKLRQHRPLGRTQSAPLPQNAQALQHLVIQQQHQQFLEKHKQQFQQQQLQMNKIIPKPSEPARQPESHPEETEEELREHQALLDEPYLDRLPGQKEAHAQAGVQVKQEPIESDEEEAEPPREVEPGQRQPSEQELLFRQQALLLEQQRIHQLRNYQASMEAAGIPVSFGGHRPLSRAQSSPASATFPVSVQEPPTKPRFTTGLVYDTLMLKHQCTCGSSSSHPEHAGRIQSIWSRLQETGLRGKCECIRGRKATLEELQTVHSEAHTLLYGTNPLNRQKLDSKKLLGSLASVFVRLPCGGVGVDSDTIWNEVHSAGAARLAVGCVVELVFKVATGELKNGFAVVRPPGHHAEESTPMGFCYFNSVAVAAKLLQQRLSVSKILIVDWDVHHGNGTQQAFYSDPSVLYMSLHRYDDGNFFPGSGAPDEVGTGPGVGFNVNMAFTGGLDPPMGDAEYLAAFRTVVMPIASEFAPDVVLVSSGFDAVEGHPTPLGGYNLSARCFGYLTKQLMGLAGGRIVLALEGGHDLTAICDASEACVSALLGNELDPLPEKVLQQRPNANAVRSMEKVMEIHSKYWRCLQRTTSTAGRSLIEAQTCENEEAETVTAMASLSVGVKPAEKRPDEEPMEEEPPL
# Histone deacetylase 5 = Histone deacetylase 5 (Homo sapiens, UniProt Q9UQL6); experiment: Inhibition of recombinant HDAC5 (unknown origin) using Boc-Lys(TFA)-AMC as substrate by fluorescence based plate reader assay
# Chain of Histone deacetylase 5 (Q9UQL6 whole entry): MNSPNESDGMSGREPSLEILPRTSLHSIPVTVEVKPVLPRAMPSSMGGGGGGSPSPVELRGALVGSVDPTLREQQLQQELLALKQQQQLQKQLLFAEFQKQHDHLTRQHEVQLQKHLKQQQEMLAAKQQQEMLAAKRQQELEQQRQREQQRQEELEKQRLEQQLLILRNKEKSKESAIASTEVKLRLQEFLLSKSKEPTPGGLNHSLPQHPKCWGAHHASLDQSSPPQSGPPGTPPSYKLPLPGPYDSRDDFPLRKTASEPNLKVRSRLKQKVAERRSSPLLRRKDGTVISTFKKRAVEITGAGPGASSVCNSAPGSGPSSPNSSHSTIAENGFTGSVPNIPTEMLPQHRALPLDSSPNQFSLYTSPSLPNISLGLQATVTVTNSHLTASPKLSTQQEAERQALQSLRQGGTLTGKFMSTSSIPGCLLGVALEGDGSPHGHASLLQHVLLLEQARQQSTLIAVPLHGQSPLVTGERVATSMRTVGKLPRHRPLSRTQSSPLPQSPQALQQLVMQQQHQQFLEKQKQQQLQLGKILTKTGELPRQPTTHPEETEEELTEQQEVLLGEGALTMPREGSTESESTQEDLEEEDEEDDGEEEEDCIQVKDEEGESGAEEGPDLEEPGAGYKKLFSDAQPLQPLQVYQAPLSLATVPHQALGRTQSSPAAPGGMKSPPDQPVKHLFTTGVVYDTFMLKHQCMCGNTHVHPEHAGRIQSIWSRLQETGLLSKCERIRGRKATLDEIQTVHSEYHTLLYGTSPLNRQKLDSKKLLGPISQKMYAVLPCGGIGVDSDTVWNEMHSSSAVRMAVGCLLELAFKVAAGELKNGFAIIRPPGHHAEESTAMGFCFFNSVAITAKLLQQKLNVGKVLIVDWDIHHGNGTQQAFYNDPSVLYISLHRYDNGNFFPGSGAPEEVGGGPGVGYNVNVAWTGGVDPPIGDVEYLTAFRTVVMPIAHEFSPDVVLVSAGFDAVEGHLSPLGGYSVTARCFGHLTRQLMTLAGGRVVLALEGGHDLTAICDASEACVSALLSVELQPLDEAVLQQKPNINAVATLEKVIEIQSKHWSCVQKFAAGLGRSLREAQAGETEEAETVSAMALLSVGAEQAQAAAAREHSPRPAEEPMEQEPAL
# Histone deacetylase 7 = target: T1, Histone deacetylase 7 (Homo sapiens, UniProt Q8WUI4); experiment: Inhibition of recombinant HDAC7 (unknown origin) using Boc-Lys(TFA)-AMC as substrate by fluorescence based plate reader assay
# T1 sequence (Q8WUI4 whole entry): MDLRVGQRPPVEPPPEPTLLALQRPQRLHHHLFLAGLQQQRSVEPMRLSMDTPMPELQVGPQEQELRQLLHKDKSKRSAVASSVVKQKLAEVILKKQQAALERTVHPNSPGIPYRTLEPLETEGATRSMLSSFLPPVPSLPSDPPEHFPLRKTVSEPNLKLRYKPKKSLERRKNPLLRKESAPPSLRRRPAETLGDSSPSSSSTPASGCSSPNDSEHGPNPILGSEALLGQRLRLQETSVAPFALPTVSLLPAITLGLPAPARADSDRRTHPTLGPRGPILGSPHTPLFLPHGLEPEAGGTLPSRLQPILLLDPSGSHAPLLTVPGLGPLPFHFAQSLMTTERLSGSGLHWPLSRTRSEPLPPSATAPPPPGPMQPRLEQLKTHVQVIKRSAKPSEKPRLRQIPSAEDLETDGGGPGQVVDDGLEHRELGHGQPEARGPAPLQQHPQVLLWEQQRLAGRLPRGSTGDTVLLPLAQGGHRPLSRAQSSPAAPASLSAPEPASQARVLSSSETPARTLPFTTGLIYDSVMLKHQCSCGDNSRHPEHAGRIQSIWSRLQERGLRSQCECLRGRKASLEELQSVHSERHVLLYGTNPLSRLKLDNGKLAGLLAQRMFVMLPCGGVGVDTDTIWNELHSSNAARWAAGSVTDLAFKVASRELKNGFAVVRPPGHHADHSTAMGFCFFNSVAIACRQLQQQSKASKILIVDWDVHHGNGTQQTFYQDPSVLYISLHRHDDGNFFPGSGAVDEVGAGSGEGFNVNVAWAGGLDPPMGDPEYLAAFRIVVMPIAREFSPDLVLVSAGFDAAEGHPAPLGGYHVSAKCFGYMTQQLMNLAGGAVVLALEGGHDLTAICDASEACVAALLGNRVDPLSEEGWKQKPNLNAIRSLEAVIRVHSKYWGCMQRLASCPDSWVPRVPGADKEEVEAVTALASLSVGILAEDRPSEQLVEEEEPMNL
# [2] = Inhibition of class 2a HDAC in human Jurkat E6.1 cells using Boc-Lys(TFA)-AMC as substrate incubated for 24 hrs by plate reader assay; format: cell-based; conditions: Jurkat E6.1, 24 h
# [3] = target: Class 1 histone deacetylase (Homo sapiens, UniProt Q13547+O15379+Q92769+Q9BY41); experiment: Inhibition of class 1 HDAC in human Jurkat E6.1 cells using Boc-Lys(Ac)-AMC as substrate incubated for 24 hrs by plate reader assay; format: cell-based
# [4] = target: T2, von Hippel-Lindau disease tumor suppressor/Histone deacetylase 4 (Homo sapiens, UniProt P40337+P56524); experiment: Protac activity at VHL/HDAC4 in human Jurkat E6.1 cells assessed as induction of HDAC4 degradation incubated for 24 hrs by ELISA-based MSD electrochemiluminescence assay; format: cell-based
# T2 sequence (P56524 whole entry): as the sequence (P56524 whole entry) above
# T2 sequence (P40337 whole entry): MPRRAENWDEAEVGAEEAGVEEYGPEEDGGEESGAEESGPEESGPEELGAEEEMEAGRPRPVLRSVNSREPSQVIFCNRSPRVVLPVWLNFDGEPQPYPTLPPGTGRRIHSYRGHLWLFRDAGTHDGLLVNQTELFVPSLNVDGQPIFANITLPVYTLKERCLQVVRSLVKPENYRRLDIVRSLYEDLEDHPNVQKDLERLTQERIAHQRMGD
# [5] = target: T3, von Hippel-Lindau disease tumor suppressor/Histone deacetylase 4 (Homo sapiens) (UniProt P56524+P40337); experiment: Protac activity at VHL/HDAC4 in human Jurkat E6.1 cells assessed as induction of HDAC4 degradation by measuring maximum degradation at 10 uM incubated for 24 hrs by ELISA-based MSD electrochemiluminescence assay relative to control; format: cell-based
# T3 sequence (P40337 whole entry, looked up): as the sequence (P40337 whole entry) above
# T3 sequence (P56524 whole entry, looked up): as the sequence (P56524 whole entry) above
# Histone deacetylase 9 = Histone deacetylase 9 (Homo sapiens, UniProt Q9UKV0)
# Chain of Histone deacetylase 9 (Q9UKV0 whole entry): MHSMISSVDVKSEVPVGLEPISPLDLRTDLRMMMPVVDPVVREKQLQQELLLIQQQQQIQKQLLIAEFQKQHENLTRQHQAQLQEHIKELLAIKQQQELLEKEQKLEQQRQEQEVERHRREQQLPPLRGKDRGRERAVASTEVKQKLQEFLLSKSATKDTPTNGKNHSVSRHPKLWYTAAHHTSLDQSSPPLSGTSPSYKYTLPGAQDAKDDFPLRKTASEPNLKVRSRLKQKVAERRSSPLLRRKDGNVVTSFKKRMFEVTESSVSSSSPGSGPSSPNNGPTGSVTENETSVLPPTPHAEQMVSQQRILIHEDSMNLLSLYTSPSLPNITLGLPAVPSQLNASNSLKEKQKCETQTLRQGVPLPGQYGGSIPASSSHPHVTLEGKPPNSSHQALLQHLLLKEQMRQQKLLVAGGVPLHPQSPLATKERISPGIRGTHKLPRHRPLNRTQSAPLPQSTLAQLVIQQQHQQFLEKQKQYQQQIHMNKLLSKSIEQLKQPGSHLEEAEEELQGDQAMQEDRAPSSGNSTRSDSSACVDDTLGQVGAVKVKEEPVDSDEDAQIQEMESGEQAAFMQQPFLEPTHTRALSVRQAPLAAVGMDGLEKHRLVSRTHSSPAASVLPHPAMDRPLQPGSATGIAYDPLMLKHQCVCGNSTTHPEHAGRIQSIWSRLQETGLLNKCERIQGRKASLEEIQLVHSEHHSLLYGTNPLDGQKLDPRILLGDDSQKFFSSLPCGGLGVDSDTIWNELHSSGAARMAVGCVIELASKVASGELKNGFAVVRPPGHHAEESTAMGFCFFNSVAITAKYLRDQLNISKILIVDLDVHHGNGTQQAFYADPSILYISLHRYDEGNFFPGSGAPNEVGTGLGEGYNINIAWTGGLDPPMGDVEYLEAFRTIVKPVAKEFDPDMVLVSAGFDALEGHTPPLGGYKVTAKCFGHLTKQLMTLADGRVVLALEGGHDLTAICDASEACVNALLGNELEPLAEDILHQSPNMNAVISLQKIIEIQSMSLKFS
# [6] = target: T2, von Hippel-Lindau disease tumor suppressor/Histone deacetylase 4; experiment: Protac activity at VHL/HDAC4 in human Jurkat E6.1 cells assessed as induction of HDAC4 degradation incubated for 24 hrs by immunoblotting analysis; format: cell-based
# [7] = target: T2, von Hippel-Lindau disease tumor suppressor/Histone deacetylase 4; experiment: Protac activity at VHL/HDAC4 in human Jurkat E6.1 cells assessed as induction of HDAC4 degradation incubated for 24 hrs in absence of elacridar by Western blot analysis; format: cell-based
# [8] = target: T2, von Hippel-Lindau disease tumor suppressor/Histone deacetylase 4; experiment: Protac activity at VHL/HDAC4 in human Jurkat E6.1 cells assessed as induction of HDAC4 degradation preincubated with elacridar for 1 hr followed by compound addition and measured after 24 hrs by Western blot analysis; format: cell-based
# Vhl/Hdac4 [9] = target: T4, Vhl/Hdac4 (Mus musculus, UniProt P40338+Q6NZM9); experiment: Protac activity at VHL/HDAC4 in Q175 KI mouse cortical neuron assessed as induction of HDAC4 degradation incubated for 4 to 72 hrs in absence of elacridar by MSD assay; format: cell-based
# T4 sequence (Q6NZM9 whole entry): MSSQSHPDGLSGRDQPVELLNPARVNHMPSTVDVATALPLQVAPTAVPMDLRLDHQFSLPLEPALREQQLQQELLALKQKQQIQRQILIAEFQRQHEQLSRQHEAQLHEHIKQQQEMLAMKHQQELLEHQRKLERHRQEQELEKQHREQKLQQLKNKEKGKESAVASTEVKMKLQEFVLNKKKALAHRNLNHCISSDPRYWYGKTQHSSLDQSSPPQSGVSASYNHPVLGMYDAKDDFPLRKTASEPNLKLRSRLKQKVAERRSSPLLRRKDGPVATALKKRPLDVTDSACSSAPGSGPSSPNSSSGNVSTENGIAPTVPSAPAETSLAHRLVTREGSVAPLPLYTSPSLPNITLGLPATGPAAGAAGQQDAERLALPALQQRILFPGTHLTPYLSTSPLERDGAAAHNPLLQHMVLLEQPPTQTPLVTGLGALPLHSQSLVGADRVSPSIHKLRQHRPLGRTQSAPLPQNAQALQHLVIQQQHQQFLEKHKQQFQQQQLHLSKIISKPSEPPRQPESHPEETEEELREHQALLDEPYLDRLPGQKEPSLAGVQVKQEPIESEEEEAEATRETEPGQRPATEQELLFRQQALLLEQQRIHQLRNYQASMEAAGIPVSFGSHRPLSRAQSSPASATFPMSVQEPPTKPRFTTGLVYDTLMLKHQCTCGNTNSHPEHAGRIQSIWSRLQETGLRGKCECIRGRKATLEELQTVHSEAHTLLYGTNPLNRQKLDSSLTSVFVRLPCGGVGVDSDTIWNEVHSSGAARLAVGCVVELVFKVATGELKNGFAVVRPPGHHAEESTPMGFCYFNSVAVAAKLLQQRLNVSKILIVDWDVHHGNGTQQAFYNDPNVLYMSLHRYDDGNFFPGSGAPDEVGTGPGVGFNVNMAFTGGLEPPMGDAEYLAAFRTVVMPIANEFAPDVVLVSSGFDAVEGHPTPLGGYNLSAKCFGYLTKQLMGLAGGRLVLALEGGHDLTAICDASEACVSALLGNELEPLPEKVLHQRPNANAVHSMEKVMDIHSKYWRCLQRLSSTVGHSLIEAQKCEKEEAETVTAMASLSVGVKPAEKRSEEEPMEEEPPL
# T4 sequence (P40338 whole entry): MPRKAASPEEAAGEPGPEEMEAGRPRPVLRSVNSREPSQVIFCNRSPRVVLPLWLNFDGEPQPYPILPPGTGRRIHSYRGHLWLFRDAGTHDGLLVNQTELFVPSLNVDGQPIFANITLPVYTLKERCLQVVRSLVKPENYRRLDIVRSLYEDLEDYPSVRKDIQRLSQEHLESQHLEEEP
# [10] = Selectivity ratio of DC50 for protac activity at VHL/HDAC4 in mouse Neuro2a cells to DC50 for protac activity at VHL/HDAC4 in human Jurkat E6.1 cells; format: cell-based
# [11] = Apparent permeability in MDCK cells; format: ADME, cell-based, Canis lupus familiaris; conditions: dog
# [12] = Apparent permeability in MDCK-MDR1 cells; format: ADME, cell-based, Canis lupus familiaris; conditions: dog
# [13] = Apparent permeability in MDCK-BCRP cells; format: ADME, cell-based, Canis lupus familiaris; conditions: dog
# [14] = Efflux ratio of apparent permeability basolateral to apical over apical to basolateral side in MDCK cells; format: ADME, cell-based, Canis lupus familiaris; conditions: dog
# [15] = Efflux ratio of apparent permeability basolateral to apical over apical to basolateral side in MDCK-MDR1 cells; format: ADME, cell-based, Canis lupus familiaris; conditions: dog
# [16] = Efflux ratio of apparent permeability basolateral to apical over apical to basolateral side in MDCK-BCRP cells; format: ADME, cell-based, Canis lupus familiaris; conditions: dog
# Vhl/Hdac4 [17] = target: T4, Vhl/Hdac4; experiment: Protac activity at VHL/HDAC4 in mouse Neuro2a cells assessed as induction of HDAC4 degradation incubated for 24 hrs in absence of elacridar by MSD assay
# Vhl/Hdac4 [18] = target: T4, Vhl/Hdac4; experiment: Protac activity at VHL/HDAC4 in mouse Neuro2a cells assessed as induction of HDAC4 degradation preincubated with elacridar for 1 hr followed by compound addition and measured after 24 hrs by MSD assay
# Homo sapiens [19] = organism: Homo sapiens; experiment: Selectivity ratio of IC50 for inhibition of HDAC4 (unknown origin) to IC50 for inhibition of HDAC5 (unknown origin)
# Homo sapiens [20] = organism: Homo sapiens; experiment: Selectivity ratio of IC50 for inhibition of HDAC4 (unknown origin) to IC50 for inhibition of HDAC7 (unknown origin)
# Homo sapiens [21] = organism: Homo sapiens; experiment: Selectivity ratio of IC50 for inhibition of HDAC4 (unknown origin) to IC50 for inhibition of HDAC9 (unknown origin)
# [22] = target: T3, von Hippel-Lindau disease tumor suppressor/Histone deacetylase 4 (Homo sapiens); experiment: Protac activity at VHL/HDAC4 in human Jurkat E6.1 cells assessed as induction of HDAC4 degradation at 1 uM incubated for 6 hrs by immunoblotting analysis; format: cell-based
solubility kinetic at 2 h [1] [µM],IC50 (Histone deacetylase 4) [nM],IC50 (Histone deacetylase 5) [nM],IC50 (Histone deacetylase 7) [nM],IC50 [2] [nM],IC50 [3] [nM],EC50 [4] [nM],Emax [5] [%],IC50 (Histone deacetylase 9) [nM],Structure (SMILES),also measured
145,–,–,–,–,–,–,–,–,CCCN(CCC)C[C@@H](C)NC(=O)c1ccc(-c2noc(C(F)(F)F)n2)cc1,–
132,100,250,230,2,2800,4,85,220,CCCN(CCCCOCCOCCOCCOCC(=O)N[C@H](C(=O)N1C[C@H](O)C[C@H]1C(=O)NCc1ccc(-c2scnc2C)cc1)C(C)(C)C)C[C@@H](C)NC(=O)c1ccc(-c2noc(C(F)(F)F)n2)cc1,–
4.8,230,–,–,130,> 5000,> 10000,20,–,Cc1ncsc1-c1ccc(CNC(=O)[C@@H]2C[C@H](O)CN2C(=O)[C@@H](NC(=O)COCCOCCOCCOCCOCC(F)(F)c2cnc(-c3ccc(C(C(=O)NO)c4ccccc4F)cc3)nc2)C(C)(C)C)cc1 (some centres undefined),–
5,560,310,210,160,> 5000,48,82,340,Cc1ncsc1-c1ccc(CNC(=O)[C@@H]2C[C@@H](O)CN2C(=O)[C@@H](NC(=O)COCCOCCOCCOCC(F)(F)c2cnc(-c3ccc(C(C(=O)NO)c4ccccc4F)cc3)nc2)C(C)(C)C)cc1 (some centres undefined),–
–,150,–,–,180,> 5000,> 10000,50,–,CCCN(CCCCOCCOCCOCCOCCOCC(=O)N[C@@H](C(=O)N1C[C@@H](O)C[C@@H]1C(=O)NCc1ccc(-c2scnc2C)cc1)C(C)(C)C)C[C@@H](C)NC(=O)c1ccc(-c2noc(C(F)(F)F)n2)cc1,–
144,92,150,150,6,> 5000,4,78,94,CCCN(CCCCOCCOCCOCCOCCOCC(=O)N[C@H](C(=O)N1C[C@H](O)C[C@H]1C(=O)NCc1ccc(-c2scnc2C)cc1)C(C)(C)C)C[C@@H](C)NC(=O)c1ccc(-c2noc(C(F)(F)F)n2)cc1,EC50 [6]: 2 nM; EC50 [7]: 1.7 nM; EC50 [8]: 1.6 nM; EC50 (Vhl/Hdac4 [9]): 1.1 nM; Ratio EC50 [10]: 20; Papp [11]: 2.1 ×10⁻⁶ cm/s; Papp [12]: 2.6 ×10⁻⁶ cm/s; Papp [13]: 1.4 ×10⁻⁶ cm/s; Ratio [14]: 13; Ratio [15]: 7; Ratio [16]: 5; EC50 (Vhl/Hdac4 [17]): 81 nM; EC50 (Vhl/Hdac4 [18]): 2.3 nM
4.8,1100,260,250,120,> 5000,37,83,420,Cc1ncsc1-c1ccc(CNC(=O)[C@@H]2C[C@@H](O)CN2C(=O)[C@@H](NC(=O)COCCOCCOCCOCCOCC(F)(F)c2cnc(-c3ccc(C(C(=O)NO)c4ccccc4F)cc3)nc2)C(C)(C)C)cc1 (some centres undefined),EC50 [6]: 11 nM; Ratio IC50 (Homo sapiens [19]): 3; Ratio IC50 (Homo sapiens [20]): 3; Ratio IC50 (Homo sapiens [21]): 3; Activity [22]: Active

Structure (SMILES),solubility kinetic at 2 h [1] [µM],IC50 (Histone deacetylase 4) [nM],IC50 (Histone deacetylase 5) [nM],IC50 (Histone deacetylase 7) [nM],IC50 [2] [nM],IC50 [3] [nM],EC50 [4] [nM],Emax [5] [%],IC50 (Histone deacetylase 9) [nM],also measured
Cc1ncsc1-c1ccc(CNC(=O)[C@@H]2C[C@@H](O)CN2C(=O)[C@@H](NC(=O)COCCOCCOCC(F)(F)c2cnc(-c3ccc(C(C(=O)NO)c4ccccc4F)cc3)nc2)C(C)(C)C)cc1 (mixture of isomers),5.2,410,230,210,150,> 5000,28,77,290,–
CCCN(CCCCOCCOCCOCC(=O)N[C@H](C(=O)N1C[C@H](O)C[C@H]1C(=O)NCc1ccc(-c2scnc2C)cc1)C(C)(C)C)C[C@@H](C)NC(=O)c1ccc(-c2noc(C(F)(F)F)n2)cc1,100,90,140,220,33,4300,3,72,130,–
